BigSolDB 2.1

Settings: in isopropanol

C=NCC#N
Settings | solubility (mole fraction)
278.15 K | 0.00069
283.15 K | 0.000826
288.15 K | 0.00106
293.15 K | 0.00129
298.15 K | 0.00153
303.15 K | 0.00188
308.15 K | 0.00229
313.15 K | 0.00279
318.15 K | 0.00338
323.15 K | 0.00411
